“And” between values parts separate entries of the source, which are not always exact repeats. Equal entries are not always repeated. Inconclusive results and toxic doses are left out.
Tested on: P388 leukemia ip, CD2F1 mice, survival T/C
Test: NCI In Vivo Anticancer Drug Screen. Data for tumor model P388 Leukemia (intraperitoneal) in CD2F1 (CDF1) mice
Conditions: endpoint: median survival time, higher = longer survival
Summary of the method: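 Mice carrying the transplanted tumor received test compound or vehicle. Survival was recorded in each group, and the value is the treated-group measurement divided by that of the vehicle-treated control group.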

[1] = dose: 60.0 mg/kg/injection, schedule: Q01DX005 (ip), vehicle: saline with Tween-80
[2] = dose: 120.0 mg/kg/injection, schedule: Q01DX005 (ip), vehicle: saline with Tween-80
[3] = dose: 240.0 mg/kg/injection, schedule: Q01DX005 (ip), vehicle: saline with Tween-80
[4] = dose: 25.0 mg/kg/injection, schedule: Q01DX009 (ip), vehicle: saline
[5] = dose: 100.0 mg/kg/injection, schedule: Q04DX003 (ip), vehicle: saline with Tween-80
[6] = dose: 200.0 mg/kg/injection, schedule: Q04DX003 (ip), vehicle: saline with Tween-80
[7] = dose: 400.0 mg/kg/injection, schedule: Q04DX003 (ip), vehicle: saline with Tween-80
[8] = dose: 25.0 mg/kg/injection, schedule: Q04DX003 (ip), vehicle: saline
[9] = dose: 50.0 mg/kg/injection, schedule: Q04DX003 (ip), vehicle: saline
[10] = dose: 100.0 mg/kg/injection, schedule: Q01DX009 (ip), vehicle: saline with Tween-80
[11] = dose: 100.0 mg/kg/injection, schedule: Q04DX002 (ip), vehicle: saline with Tween-80
[12] = dose: 50.0 mg/kg/injection, schedule: Q01DX009 (ip), vehicle: Klucel (hydroxypropylcellulose) (HPC)
[13] = dose: 100.0 mg/kg/injection, schedule: Q01DX009 (ip), vehicle: Klucel (hydroxypropylcellulose) (HPC)
[14] = dose: 50.0 mg/kg/injection, schedule: Q01DX005 (ip), vehicle: saline with Tween-80
[15] = dose: 100.0 mg/kg/injection, schedule: Q01DX005 (ip), vehicle: saline with Tween-80
[16] = dose: 200.0 mg/kg/injection, schedule: Q01DX005 (ip), vehicle: saline with Tween-80
[17] = dose: 60.0 mg/kg/injection, schedule: Q01DX005 (ip), vehicle: saline
[18] = dose: 120.0 mg/kg/injection, schedule: Q01DX005 (ip), vehicle: saline
[19] = dose: 240.0 mg/kg/injection, schedule: Q01DX005 (ip), vehicle: saline

COc1cc2c(cc1OC)-c1c(O)c(OC)cc3c1C(C2)N(C)CC3 (centres undefined)
T/C (dose: 1.12 mg/kg/injection, schedule: Q01DX009 (ip), vehicle: Klucel (hydroxypropylcellulose) (HPC)): 100 % of control | T/C (dose: 1.25 mg/kg/injection, schedule: Q01DX009 (ip), vehicle: Klucel (hydroxypropylcellulose) (HPC)): 103 % of control | T/C (dose: 2.25 mg/kg/injection, schedule: Q01DX009 (ip), vehicle: Klucel (hydroxypropylcellulose) (HPC)): 100 % of control and 103 % of control | T/C (dose: 2.5 mg/kg/injection, schedule: Q01DX009 (ip), vehicle: Klucel (hydroxypropylcellulose) (HPC)): 91 % of control | T/C (dose: 4.5 mg/kg/injection, schedule: Q01DX009 (ip), vehicle: Klucel (hydroxypropylcellulose) (HPC)): 103 % of control | T/C (dose: 5.0 mg/kg/injection, schedule: Q01DX009 (ip), vehicle: Klucel (hydroxypropylcellulose) (HPC)): 97 % of control | T/C (dose: 9.0 mg/kg/injection, schedule: Q01DX009 (ip), vehicle: Klucel (hydroxypropylcellulose) (HPC)): 110 % of control and 95 % of control | T/C (dose: 10.0 mg/kg/injection, schedule: Q01DX009 (ip), vehicle: Klucel (hydroxypropylcellulose) (HPC)): 97 % of control | T/C (dose: 18.0 mg/kg/injection, schedule: Q01DX009 (ip), vehicle: Klucel (hydroxypropylcellulose) (HPC)): 93 % of control

CCOC(=O)c1ccc(NC(=O)Oc2ccc(C(=O)OC)cc2)cc1
T/C [1]: 103 % of control | T/C [2]: 100 % of control | T/C [3]: 103 % of control

COC(=O)NC1C(=O)OC(C2OC2(C)C)C1(C)C (centres undefined)
T/C [1]: 101 % of control and 100 % of control | T/C [2]: 101 % of control and 99 % of control | T/C [3]: 100 % of control and 99 % of control

CCSC1C(=O)N(C)C(SCC)C(=O)N1C (centres undefined)
T/C (dose: 12.5 mg/kg/injection, schedule: Q01DX009 (ip), vehicle: saline): 103 % of control | T/C [4]: 109 % of control | T/C (dose: 50.0 mg/kg/injection, schedule: Q01DX009 (ip), vehicle: saline): 100 % of control and 86 % of control

O=C(CCCCCCCCC(=O)NO)NO
T/C [1]: 96 % of control | T/C [2]: 100 % of control | T/C [3]: 100 % of control

COc1cccc(N(CCO)C2CCCCC2)c1
T/C [5]: 100 % of control | T/C [6]: 90 % of control | T/C [7]: 88 % of control

OCCN1CCN(c2c3ccccc3nc3ccccc23)CC1
T/C [8]: 100 % of control | T/C [9]: 100 % of control

CC(=O)/C=C\c1ccc(Cl)cc1
T/C (dose: 50.0 mg/kg/injection, schedule: Q01DX009 (ip), vehicle: saline with Tween-80): 100 % of control | T/C [10]: 91 % of control | T/C [5]: 113 % of control | T/C [6]: 98 % of control | T/C [7]: 91 % of control

Cc1ccc(C(=NN=C(c2ccc(C)cc2)c2ccc(C)cc2)c2ccc(C)cc2)cc1
T/C [11]: 90 % of control | T/C (dose: 200.0 mg/kg/injection, schedule: Q04DX002 (ip), vehicle: saline with Tween-80): 93 % of control

O=C1CSC(c2ccc(F)c(F)c2)N1c1nncs1 (centres undefined)
T/C [1]: 99 % of control | T/C [2]: 101 % of control | T/C [3]: 101 % of control

C[Si](C)(C)S[Si](C)(C)C
T/C [12]: 106 % of control | T/C [13]: 100 % of control

OCc1cc(-c2ccc(Cl)cc2)nc2c(C(F)(F)F)cccc12
T/C [5]: 100 % of control | T/C [6]: 111 % of control | T/C [7]: 92 % of control

Cc1cnc(C#N)c(Cl)n1
T/C [10]: 100 % of control | T/C [5]: 110 % of control | T/C (dose: 200.0 mg/kg/injection, schedule: Q01DX009 (ip), vehicle: saline with Tween-80): 115 % of control | T/C [6]: 110 % of control | T/C [7]: 100 % of control

CNC1C(OC2C(OC3C(O)C(O)C(N=C(N)N)C(O)C3N=C(N)N)OC(C)C2(O)/C=N/NC(N)=S)OC(CO)C(O)C1O (centres undefined)
T/C [14]: 101 % of control | T/C [15]: 100 % of control | T/C [16]: 103 % of control

COC(=O)C(C)NC(=O)C(C)NC(=O)c1cnc2ccccc2n1 (centres undefined)
T/C [1]: 97 % of control | T/C [2]: 99 % of control | T/C [3]: 111 % of control

CC(C)=CC(=O)CC(O)(C(F)(F)F)C(F)(F)Cl (centres undefined)
T/C (dose: 25.0 mg/kg/injection, schedule: Q01DX009 (ip), vehicle: saline with Tween-80): 109 % of control

N/C(=N\Cl)C(Cl)(Cl)Cl
T/C (dose: 16.5 mg/kg/injection, schedule: Q01DX009 (ip), vehicle: saline): 113 % of control | T/C [4]: 106 % of control | T/C (dose: 37.5 mg/kg/injection, schedule: Q01DX009 (ip), vehicle: saline): 111 % of control

CC(C)CN1CC(=O)N2CCCC(C)N2C(=O)C1 (centres undefined)
T/C [14]: 100 % of control | T/C [15]: 99 % of control | T/C [16]: 102 % of control

CCN(CC)CCC[Si]1(C)c2ccccc2CCc2ccccc21
T/C [8]: 111 % of control | T/C [9]: 102 % of control | T/C (dose: 100.0 mg/kg/injection, schedule: Q04DX003 (ip), vehicle: saline): 92 % of control

NC1=C(O)C(=O)C(c2ccc3c(c2)CCC3)O1 (centres undefined)
T/C (dose: 60.0 mg/kg/injection, schedule: Q01DX005 (ip), vehicle: Klucel (hydroxypropylcellulose) (HPC)): 91 % of control | T/C (dose: 120.0 mg/kg/injection, schedule: Q01DX005 (ip), vehicle: Klucel (hydroxypropylcellulose) (HPC)): 87 % of control

Nc1nnc2nc(CC(=O)c3ccc4ccccc4c3)c(=O)[nH]n12
T/C [17]: 95 % of control | T/C [18]: 100 % of control | T/C [19]: 103 % of control

COc1ccc2c(c1)[C@]13CCN(N=O)[C@H](C2)[C@@H]1CCC(=O)C3
T/C (dose: 25.0 mg/kg/injection, schedule: Q01DX001 (ip), vehicle: saline with Tween-80): 92 % of control | T/C (dose: 50.0 mg/kg/injection, schedule: Q01DX001 (ip), vehicle: saline with Tween-80): 108 % of control | T/C (dose: 100.0 mg/kg/injection, schedule: Q01DX001 (ip), vehicle: saline with Tween-80): 106 % of control and 92 % of control

CC(=O)NC1=C(N2CC2)C(=O)C(NC(C)=O)=C(N2CC2)C1=O
T/C (dose: 125.0 micrograms/kg/injection, schedule: Q01DX010 (ip), vehicle: saline): 115 % of control | T/C (dose: 500.0 micrograms/kg/injection, schedule: Q01DX010 (ip), vehicle: saline): 215 % of control | T/C (dose: 1000.0 micrograms/kg/injection, schedule: Q01DX010 (ip), vehicle: saline): 255 % of control

Cc1cc(C)c(C#N)c(=O)[nH]1
T/C (dose: 12.5 mg/kg/injection, schedule: Q04DX003 (ip), vehicle: saline with Tween-80): 97 % of control | T/C (dose: 25.0 mg/kg/injection, schedule: Q04DX003 (ip), vehicle: saline with Tween-80): 103 % of control | T/C (dose: 50.0 mg/kg/injection, schedule: Q04DX003 (ip), vehicle: saline with Tween-80): 105 % of control | T/C [5]: 103 % of control

COC(=O)C1=CN(CCc2ccc(O)cc2)C(=O)C2C1CC(O)C2C (centres undefined)
T/C (dose: 7.5 mg/kg/injection, schedule: Q01DX005 (ip), vehicle: saline with Tween-80): 99 % of control | T/C (dose: 15.0 mg/kg/injection, schedule: Q01DX005 (ip), vehicle: saline with Tween-80): 93 % of control | T/C (dose: 30.0 mg/kg/injection, schedule: Q01DX005 (ip), vehicle: saline with Tween-80): 94 % of control

C1CN2CCOC2O1
T/C [17]: 100 % of control | T/C [18]: 101 % of control | T/C [19]: 99 % of control

CCCCCCCCCCCCCCCCCCCCC(C(=O)OCC)S(=O)(=O)O (centres undefined)
T/C [12]: 116 % of control | T/C [13]: 111 % of control

Fc1ccc(NP(=S)(Nc2ccc(F)cc2F)Nc2ccc(F)cc2F)c(F)c1
T/C (dose: 25.0 mg/kg/injection, schedule: Q04DX002 (ip), vehicle: saline with Tween-80): 101 % of control | T/C (dose: 50.0 mg/kg/injection, schedule: Q04DX002 (ip), vehicle: saline with Tween-80): 104 % of control | T/C [11]: 102 % of control and 105 % of control

CC(=NCCCCN=C(C)c1cc(C)cc([N+](=O)[O-])c1O)c1cc(C)cc([N+](=O)[O-])c1O.[Co]
T/C (dose: 100.0 mg/kg/injection, schedule: Q05DX002 (ip), vehicle: saline with Tween-80): 92 % of control | T/C (dose: 200.0 mg/kg/injection, schedule: Q05DX002 (ip), vehicle: saline with Tween-80): 98 % of control | T/C (dose: 400.0 mg/kg/injection, schedule: Q05DX002 (ip), vehicle: saline with Tween-80): 92 % of control

CC(C)C(C(F)C(=O)OCc1ccccc1)N(Cc1ccccc1)Cc1ccccc1 (centres undefined)
T/C (dose: 50.0 mg/kg/injection, schedule: Q01DX005 (ip), vehicle: Klucel (hydroxypropylcellulose) (HPC)): 98 % of control | T/C (dose: 100.0 mg/kg/injection, schedule: Q01DX005 (ip), vehicle: Klucel (hydroxypropylcellulose) (HPC)): 91 % of control | T/C (dose: 200.0 mg/kg/injection, schedule: Q01DX005 (ip), vehicle: Klucel (hydroxypropylcellulose) (HPC)): 89 % of control

— PubChem BioAssay AID330 (DTP/NCI, 2004)
